By LD50 is commonly meant the dose expected to kill half of the subjects tested. In general, ED50 refers to the dose that gives a 50% effect, or the effect in half of the subjects. The term IC50 denotes the midpoint of a concentration-inhibition curve. Higher therefore signals weaker potency in that assay. As a reminder, the inhibition is how much of the control response was suppressed.

The text below walks through data of patent US8993575B2, “[1,3,4] oxadiazole derivative and application thereof” (Huazhong University of Science & Technology, priority 2011, dated 2015).

Molecules are shown by their SMILES. Read-outs that look alike come from different tables or passages of the source.

The nature of one data set: in vivo. To be noted: both sexes, mouse, in vivo; po, single intragastric administration in mice; read-out: LD50. The method, then:
(§1) KM mice (half male and half female) were randomly divided into several groups (with 2-5 mice in each group), which were respectively the 2000 mg/kg groups for each compound, and the solvent group. 0.2 ml/10 g were administered intragastrically. The death of the animals in 3 days were observed. (In the case 3 or more animals survived in 3 days without notable abnormity in their life states, the observation was continued until the assay was completed in 7 days. In the case 3 or more animals died in 3 days, the median lethal dose method was used to determine the LD50).
(§2) KM mice (half male and half female) were randomly divided into several groups (with 4 mice in each group), which were respectively the 1500 mg/kg, 1000 mg/kg, 500 mg/kg groups for each compound, and the solvent group. 0.2 ml/10 g were administered intragastrically, and the death of the animals in 1-3 days were observed.

In another data set the test system is KM mice. The data set is described as follows: in vivo. The following applies: po, single intragastric administration in mice. The method, then:
as §1, §2

For data set [1], the system named is apomorphine induced clambering of mice. The data set is described as follows: Apomorphine induced clambering assay of mice. To be noted: for ED50: Mus musculus, po, read-out: apomorphine induced clambering ED50; for improvement of apomorphine induced clambering symptoms (in words): compared to the model group.
Method: Apomorphine provided by Sigma Company was dissolved in 0.9% NaCl (containing 0.1% vitamin C) before use, and was freshly formulated before use.
Instruments: self-made clambering cage, chronograph.
After 5 min of adaptation, the behaviors of the mice at 10-11, 20-21, 30-31 min after the injection of apomorphine were observed.
The subject of data set [2] is MK-801 high activity mice. The data set is described as follows: MK-801 induced high activity in mice. Format: in vivo. To be noted: for ED50: Mus musculus, po, read-out: MK-801 induced high activity ED50; for improvement of MK-801 induced high activity (in words): compared to the model group; for Total moving distance: MK-801 high activity mice, within 90 min. The method, then:
Ascorbic acid was provided by Sinopharm Chemical Reagent Co. Ltd.
MK-801 was produced by Sigma Company, USA; the formulation method: 0.1% vitamin C was used to formulate a 1 mg/ml solution.
Tween 80, with the concentration of 10%.
Mice with qualified body weight were selected, and randomly divided into blank group, model group, positive control group (risperidone group) and drug group. […] 1 H after the administration, 0.1% of ascorbic acid was intraperitoneally injected to the blank group at 0.1 ml/10 g; and the model group, the positive control group (30 min) and the drug group were intraperitoneally injected the MK-801 solution at 0.1 mg/kg. Subsequently, the spontaneous activities of the mice of each group in 90 min were measured.

The target in the next data set is 5HT2A receptor (Rattus norvegicus (Rat), UniProt P14842). Nature of the data set: 5HT2A receptor assay ([3H]-Ketanserin, rat brain mantle membrane). Format: binding. To be noted: values marked a = IC50.
5HT2A receptor, sequence (P14842 whole entry): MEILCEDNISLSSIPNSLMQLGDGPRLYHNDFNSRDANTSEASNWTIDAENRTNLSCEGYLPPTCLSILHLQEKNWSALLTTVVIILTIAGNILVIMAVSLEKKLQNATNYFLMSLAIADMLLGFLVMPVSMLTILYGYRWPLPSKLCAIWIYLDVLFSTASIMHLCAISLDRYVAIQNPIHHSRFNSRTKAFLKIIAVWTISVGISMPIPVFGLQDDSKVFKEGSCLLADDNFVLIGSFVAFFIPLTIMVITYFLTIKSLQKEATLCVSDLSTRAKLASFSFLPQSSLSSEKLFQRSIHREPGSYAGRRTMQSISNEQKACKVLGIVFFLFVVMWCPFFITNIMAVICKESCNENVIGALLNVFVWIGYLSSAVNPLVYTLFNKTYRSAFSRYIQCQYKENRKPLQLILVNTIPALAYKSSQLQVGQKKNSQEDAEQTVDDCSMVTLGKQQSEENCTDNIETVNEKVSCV
Data set [3] deals with four receptors (D2, D3, 5-HT1A and 5-HT2A). The data set is described as follows: In vitro receptor binding assays, summary over four receptors. To be noted: in vitro assay.
Another data set concerns KM mice (catalepsy). The data set is described as follows: Catalepsy assay in mice. Format: in vivo. The protocol:
(§3) The durations for the mice to maintain the posture with the two forepaws on the bars were recorded, and 30 s of spasticity without moving was considered as the positive response. In the case the forepaws of the mice were not put down persistently, the observation was terminated at 60 s. The numbers of animals with positive response in each of the compound dosage groups were counted.

A further data set in a line: Catalepsy assay in mice. Format: in vivo. To be noted: both sexes, Kunming (KM), mouse, in vivo; po, mice. The protocol:
as §3

The target in a further data set is D3 receptor (Homo sapiens (Human), UniProt P35462). Nature of the data set: D3 receptor binding assay ([3H]-Spiperone, HEK-293 cells). The following applies: test compound final concentration 10 μmol/L. The protocol: After the cells were centrifuged at 1000 rpm for 5 min, the supernatant was discarded, and the cell pellet was collected and stored in a −20° C. fridge for reservation. It was re-suspended with Tris-Cl (pH 7.4) in the assay.
D3 receptor, sequence (P35462 whole entry): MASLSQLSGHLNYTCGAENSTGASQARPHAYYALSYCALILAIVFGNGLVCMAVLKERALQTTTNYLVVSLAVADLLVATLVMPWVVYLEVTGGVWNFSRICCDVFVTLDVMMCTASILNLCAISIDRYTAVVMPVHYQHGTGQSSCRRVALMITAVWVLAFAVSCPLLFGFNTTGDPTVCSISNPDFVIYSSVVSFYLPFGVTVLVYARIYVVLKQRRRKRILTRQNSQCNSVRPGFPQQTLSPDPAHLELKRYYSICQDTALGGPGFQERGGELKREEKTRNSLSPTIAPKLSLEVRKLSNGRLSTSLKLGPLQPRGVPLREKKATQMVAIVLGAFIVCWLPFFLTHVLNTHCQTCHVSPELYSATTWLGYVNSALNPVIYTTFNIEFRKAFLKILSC
Tris was divided into aliquots by Genetimes Technology Inc.
Competitive binding test for receptors: 20 μl of each of the test compounds and 20 μl of the radioactive ligand together with 160 μl of the receptor proteins were added into the reaction tubes, and the final concentrations of the test compound and the positive drug were all 10 μmol/L. After 50 min of incubation in 30° C. water bath, the tubes were immediately moved to ice bath to terminate the reactions. GF/C glass fiber filter papers were used for rapid sucking filtration on a Millipore cell sample collector, elution buffer (50 mM Tris-HCl, PH 7.4) was applied for 3 ml×3 times, and microwave was applied for 4-5 min for drying. The filter papers were moved into 0.5 ml centrifuge tubes, and 500 μl of lipid-soluble scintillation solution was added. The tubes were allowed to stand still for over 30 min in dark, and the intensities of radioactivity were measured by a counter.

The next data set deals with D2 receptor (Rattus norvegicus (Rat), UniProt P61169). The data set is described as follows: D2 receptor binding assay (3H-Spiperone, rat brain striatum membrane). The following applies: read-out: D2 Inhibition %.
D2 receptor, sequence (P61169 whole entry): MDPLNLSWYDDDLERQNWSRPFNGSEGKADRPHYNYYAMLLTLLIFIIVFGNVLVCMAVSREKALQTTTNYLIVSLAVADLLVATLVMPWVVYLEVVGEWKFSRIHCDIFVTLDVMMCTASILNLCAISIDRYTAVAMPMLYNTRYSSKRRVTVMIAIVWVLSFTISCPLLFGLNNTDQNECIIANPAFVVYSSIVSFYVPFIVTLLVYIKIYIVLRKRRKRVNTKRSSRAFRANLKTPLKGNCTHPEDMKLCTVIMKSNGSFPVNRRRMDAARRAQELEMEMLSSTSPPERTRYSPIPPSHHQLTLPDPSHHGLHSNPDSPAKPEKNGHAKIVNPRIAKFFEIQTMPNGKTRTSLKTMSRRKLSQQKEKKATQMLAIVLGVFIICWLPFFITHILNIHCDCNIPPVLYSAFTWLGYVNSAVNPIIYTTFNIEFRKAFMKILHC
In another data set the target is 5HT1A receptor (Rattus norvegicus (Rat), UniProt P19327). The data set is described as follows: 5HT1A receptor binding assay (3H-8-OH-DPAT, rat brain mantle membrane). The following applies: values marked a = IC50. The method, then: Incubation at 37° C. was conducted for 10 min, the weight of the tubes were adjusted using a balance after incubation. […] Centrifugation was conducted and repeated 3 times.
5HT1A receptor, sequence (P19327 whole entry): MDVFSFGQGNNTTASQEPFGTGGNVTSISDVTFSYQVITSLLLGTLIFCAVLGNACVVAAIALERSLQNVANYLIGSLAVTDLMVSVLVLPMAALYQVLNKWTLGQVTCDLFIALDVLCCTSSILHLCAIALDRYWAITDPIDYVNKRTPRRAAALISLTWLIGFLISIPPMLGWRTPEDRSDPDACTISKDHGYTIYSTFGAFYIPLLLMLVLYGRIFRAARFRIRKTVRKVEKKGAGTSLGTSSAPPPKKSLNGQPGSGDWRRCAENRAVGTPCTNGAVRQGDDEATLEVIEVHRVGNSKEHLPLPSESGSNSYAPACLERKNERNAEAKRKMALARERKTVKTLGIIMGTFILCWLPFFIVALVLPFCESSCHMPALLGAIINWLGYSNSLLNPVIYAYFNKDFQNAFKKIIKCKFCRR

The target of a further data set is 5HT2C (Rattus norvegicus (Rat), UniProt P08909). The data set is described as follows: 5HT2C receptor binding assay ([3H]-mesulergine, rat brain mantle membrane). The following applies: test compound final concentration 10^-5 M. The protocol: Incubation at 37° C. was conducted for 10 min, the weight of the tubes were adjusted using a balance after the incubation. […] Centrifugation was conducted (repeated 3 times).
5HT2C, sequence (P08909 33-460 limits assumed): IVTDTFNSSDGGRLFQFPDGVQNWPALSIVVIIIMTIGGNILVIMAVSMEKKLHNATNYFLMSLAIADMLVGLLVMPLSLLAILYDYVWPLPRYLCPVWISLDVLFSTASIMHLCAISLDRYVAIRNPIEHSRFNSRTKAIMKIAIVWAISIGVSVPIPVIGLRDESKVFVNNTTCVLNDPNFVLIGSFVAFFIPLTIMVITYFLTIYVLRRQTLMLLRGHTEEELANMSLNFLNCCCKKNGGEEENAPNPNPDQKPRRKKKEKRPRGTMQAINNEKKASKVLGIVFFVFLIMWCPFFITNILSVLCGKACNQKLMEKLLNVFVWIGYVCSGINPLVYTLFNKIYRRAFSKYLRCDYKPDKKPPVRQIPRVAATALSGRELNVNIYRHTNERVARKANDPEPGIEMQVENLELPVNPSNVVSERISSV

Method for D2 receptor: Brain striatum was rapidly taken, and 2 brain striatums were combined into a centrifuge tube, to which 3 ml of buffer (0.05 M Tris-HCl buffer, containing NaCl 120 mM, KCl 5 mM, MgCl2 1 mM, CaCl2 1 mM) was added, homogenization was conducted for 3-4 s at level 4 for four times, and then 5 ml of buffer was then added. The weight of the homogenized tubes were adjusted using a balance, and centrifugation was conducted at 12000 r, 4° C. for 20 min. The supernatant was discarded, and 3 ml of buffer was added (0.05 M Tris-HCl buffer, containing NaCl 120 mM, KCl 5 mM, MgCl2 1 mM, CaCl2 1 mM). Vortex mixer was used for blending, and then 5 ml of buffer was added (0.05 M Tris-HCl buffer, containing NaCl 120 mM, KCl 5 mM, MgCl2 1 mM, CaCl2 1 mM). Centrifugation was conducted and repeated 3 times. After the centrifugations, the supernatant was discarded, and the pellets were stored at −80° C. for future use.
Beckman LS-6500 Multi-function Liquid Scintillation Counter was used.
(1) The prepared membrane was first applied with appropriate amount of buffer (0.05 M Tris-HCl buffer, containing NaCl 120 mM, KCl 5 mM, MgCl2 1 mM, CaCl2 1 mM), and homogenizer was used for evenly dispersing. 15 tubes were mixed into a 100 ml container, and appropriate amount of homogenized liquid was added to give 50 ml of membrane suspension, which was reserved for future use.
(2) 100 μL of membrane preparation and 100 μL of buffer (0.05 M Tris-HCl buffer, containing NaCl 120 mM, KCl 5 mM, MgCl2 1 mM, CaCl2 1 mM) were added into each reaction tube.
(3) 100 μL of homogenized liquid was added into the total binding tube (TB), 100 μL of Butaclamol (final concentration 10^−5 M) was added into the non-specific binding tube (NB), and 100 μL of the test compound (final concentration 10^−5 M) was added into the specific binding tube (SB) for each compound.
(5) Each of the reaction tubes was incubated at 37° C. for 20 min. After the reaction was completed, the bound ligands were rapidly filtered under reduced pressure, and the ice-chilled assay buffer was used for adequate washing. The filter was taken out and put into a 3 ml scintillation vial, and 2 ml of toluene scintillation solution was added and blended.
(6) The scintillation vials were put into Liquid Scintillation Counter for counting. Inhibitory rate(1%)=[(Total binding tube cpm−compound cpm)/(Total binding tube cpm−non-specific binding tube cpm)]×100%
Each assay for the compounds was conducted in duplicate.

Consider `Cc1nc2n(c(=O)c1CCN1CCC(c3noc4cc(F)ccc34)CC1)CCCC2` [risperidone, reference compound], for which the LD50 in the data set “in vivo” is 82.1 mg/kg. The LD50 in the data set with KM mice stood at 82.1 mg/kg. For the same molecule, in data set [1], the ED50 came out at 0.02 mg/kg and the “improvement of apomorphine induced clambering symptoms (in words)” value is “effectively improve”. Also, in data set [2], the ED50 worked out at 0.01 mg/kg and the “improvement of MK-801 induced high activity (in words)” value is “significantly improve”.
For `Fc1ccc2c(C3CCN(CCCSc4nnc(-c5cccc6ccccc56)o4)CC3)noc2c1` [Compound 12], the IC50 amounted to 122 nM against 5HT2A receptor and 175 nM on 5HT1A receptor. The LD50 in the data set “in vivo” is more than 2000 mg/kg. Moreover, in data set [3], the “affinities to D2, D3, 5-HT1A and 5-HT2A receptors (in words)” value was “relatively stronger affinities”. In [3], the “affinity compared to aripiprazole (in words)” value was “equivalent to aripiprazole”. Besides, the “EPS at effective dosage (in words)” value in the data set on KM mice (catalepsy) (at effective dosage) was “did not cause EPS”. The catalepsy/MK-801 with KM mice (catalepsy) (ratio of ED50 values) was found to be 20.00. Also, the catalepsy/apomorphine in the data set on KM mice (catalepsy) (ratio of ED50 values) was determined as 74.44. For the same molecule, the ED50 in the data set “Catalepsy assay in mice” stood at 300 mg/kg; in data set [1], 4.03 mg/kg; in [2] (mice), 15 mg/kg. The inhibition at 10 µM on D3 receptor is 100%; on D2 receptor, 98.4%; on 5HT2C, 60.6%. For the same molecule, in data set [1], the “improvement of apomorphine induced clambering symptoms (in words)” value is “effectively improve”. In addition, the Total moving distance in [2] (10 mg/kg intragastric) came out at 20521.27 ± 7898.02 cm; in data set [2] (20 mg/kg intragastric), 12936.50 ± 3627.24 cm; in [2] (30 mg/kg intragastric), 16163.49 ± 7769.48 cm; in [2] (50 mg/kg intragastric), 10298.82 ± 4269.95 cm; in data set [2] (100 mg/kg intragastric), 5665.86 ± 1799.20 cm. In addition, the “improvement of MK-801 induced high activity (in words)” value in data set [2] is “significantly improve”.
